Laboratory results taken from ChEMBL document CHEMBL1145390, “Synthesis and preliminary biological characterization of new semisynthetic derivatives of ramoplanin” (J Med Chem, 2007).
Converted amounts (≈) assume the structure as drawn.

Key:
Candida albicans = assay: Antifungal activity against Candida albicans SKF-2270 after 24 hrs by broth microdilution method; format: functional; conditions: read-out: MIC
Staphylococcus aureus [1] = assay: Antibacterial activity against Staphylococcus aureus Smith after 24 hrs by broth microdilution method; format: functional; conditions: read-out: MIC
Staphylococcus aureus [2] = assay: Antibacterial activity against vancomycin-intermediate resistant Staphylococcus aureus clinical isolate after 24 hrs by broth microdilution method; format: functional
Staphylococcus aureus [3] = assay: Antibacterial activity against methicillin-resistant and vancomycin-intermediate resistant Staphylococcus aureus clinical isolate after 24 hrs by broth microdilution method; format: functional; conditions: read-out: MIC
[4] = Toxicity assessed as hemolysis in erythrocytes at 90 mg/L; format: cell-based, Erythrocyte; conditions: human, erythrocytes; read-out: Activity
Escherichia coli = assay: Antibacterial activity against Escherichia coli SKF-12140 after 24 hrs by broth microdilution method; format: functional; conditions: read-out: MIC
Enterococcus faecalis [5] = assay: Antibacterial activity against Enterococcus faecalis after 24 hrs by broth microdilution method; format: functional; conditions: read-out: MIC
Enterococcus faecalis [6] = assay: Antibacterial activity against vancomycin A-resistant Enterococcus faecalis after 24 hrs by broth microdilution method; format: functional; conditions: read-out: MIC
Staphylococcus aureus [7] = assay: Antibacterial activity against methicillin-resistant Staphylococcus aureus clinical isolate after 24 hrs by broth microdilution method; format: functional; conditions: read-out: MIC
Enterococcus faecium [8] = assay: Antibacterial activity against vancomycin A-resistant Enterococcus faecium clinical isolate after 24 hrs by broth microdilution method; format: functional; conditions: read-out: MIC
Streptococcus pyogenes = assay: Antibacterial activity against Streptococcus pyogenes C203 after 24 hrs by broth microdilution method; format: functional; conditions: C203, 24 h, read-out: MIC
Enterococcus faecium [9] = assay: Antibacterial activity against Enterococcus faecium after 24 hrs by broth microdilution method; format: functional; conditions: read-out: MIC
[10] = Toxicity assessed as hemolysis in erythrocytes at 180 mg/L; format: cell-based, Erythrocyte; conditions: human, erythrocytes; read-out: Activity

Row | Compound | MIC (Candida albicans) | MIC (Staphylococcus aureus [1]) | MIC (Staphylococcus aureus [2]) | MIC (Staphylococcus aureus [3]) | hemolysis at 90 mg/L [4] | MIC (Escherichia coli) | MIC (Enterococcus faecalis [5]) | MIC (Enterococcus faecalis [6]) | MIC (Staphylococcus aureus [7]) | MIC (Enterococcus faecium [8]) | MIC (Streptococcus pyogenes) | MIC (Enterococcus faecium [9]) | hemolysis at 180 mg/L [10]
1 | CCCCOc1ccc(C(=O)N[C@@H](CC(N)=O)C(=O)NC[C@@H]2C(=O)N[C@H](c3ccc(O)cc3)C(=O)N[C@H](CCCN)C(=O)N[C@H](C(C)C)C(=O)N[C@@H](c3ccc(O)cc3)C(=O)N[C@H](c3ccc(O)cc3)C(=O)N[C@@H]([C@@H](C)O)C(=O)N[C@@H](Cc3ccccc3)C(=O)N[C@H](CCCN)C(=O)N[C@@H](c3ccc(O[C@H]4O[C@H](CO)[C@@H](O)[C@H](O)[C@@H]4O[C@H]4O[C@H](CO)[C@@H](O)[C@H](O)[C@@H]4O)cc3)C(=O)N[C@H]([C@@H](C)O)C(=O)N[C@@H](c3ccc(O)cc3)C(=O)NCC(=O)N[C@@H](CC(C)C)C(=O)N[C@H](C)C(=O)N[C@@H](c3ccc(O)c(Cl)c3)C(=O)O[C@@H]2C(N)=O)cc1 | > 32 µg/mL | 0.25 µg/mL (≈ 0.0959 µM) | 4 µg/mL (≈ 1.53 µM) | 4 µg/mL (≈ 1.53 µM) | 0% | > 32 µg/mL | 0.25 µg/mL (≈ 0.0959 µM) | 0.25 µg/mL (≈ 0.0959 µM) | 0.5 µg/mL (≈ 0.192 µM) | 0.25 µg/mL (≈ 0.0959 µM) | 0.125 µg/mL (≈ 0.048 µM) | 0.25 µg/mL (≈ 0.0959 µM) | 5%
2 | CCCCOc1ccc(C(=O)N[C@@H](CC(N)=O)C(=O)NC[C@@H]2C(=O)N[C@H](c3ccc(O)cc3)C(=O)N[C@H](CCCN)C(=O)N[C@H](C(C)C)C(=O)N[C@@H](c3ccc(O)cc3)C(=O)N[C@H](c3ccc(O)cc3)C(=O)N[C@@H]([C@@H](C)O)C(=O)N[C@@H](Cc3ccccc3)C(=O)N[C@H](CCCN)C(=O)N[C@@H](c3ccc(O[C@H]4O[C@H](CO)[C@@H](O)[C@H](O)[C@@H]4O[C@H]4O[C@H](CO)[C@@H](O)[C@H](O)[C@@H]4O)cc3)C(=O)N[C@H]([C@@H](C)O)C(=O)N[C@@H](c3ccc(O)cc3)C(=O)NCC(=O)N[C@@H](CC(C)C)C(=O)N[C@H](C)C(=O)N[C@@H](c3ccc(O)c(Cl)c3)C(=O)O[C@@H]2C(N)=O)cc1OCCCC | > 32 µg/mL | 2 µg/mL (≈ 0.747 µM) | 16 µg/mL (≈ 5.97 µM) | 16 µg/mL (≈ 5.97 µM) | 0% | > 32 µg/mL | 1 µg/mL (≈ 0.373 µM) | 1 µg/mL (≈ 0.373 µM) | 8 µg/mL (≈ 2.99 µM) | 1 µg/mL (≈ 0.373 µM) | 1 µg/mL (≈ 0.373 µM) | 1 µg/mL (≈ 0.373 µM) | 47%
3 | CCCCCCCOc1ccc(C(=O)N[C@@H](CC(N)=O)C(=O)NC[C@@H]2C(=O)N[C@H](c3ccc(O)cc3)C(=O)N[C@H](CCCN)C(=O)N[C@H](C(C)C)C(=O)N[C@@H](c3ccc(O)cc3)C(=O)N[C@H](c3ccc(O)cc3)C(=O)N[C@@H]([C@@H](C)O)C(=O)N[C@@H](Cc3ccccc3)C(=O)N[C@H](CCCN)C(=O)N[C@@H](c3ccc(O[C@H]4O[C@H](CO)[C@@H](O)[C@H](O)[C@@H]4O[C@H]4O[C@H](CO)[C@@H](O)[C@H](O)[C@@H]4O)cc3)C(=O)N[C@H]([C@@H](C)O)C(=O)N[C@@H](c3ccc(O)cc3)C(=O)NCC(=O)N[C@@H](CC(C)C)C(=O)N[C@H](C)C(=O)N[C@@H](c3ccc(O)c(Cl)c3)C(=O)O[C@@H]2C(N)=O)cc1 | > 32 µg/mL | 8 µg/mL (≈ 3.02 µM) | 8 µg/mL (≈ 3.02 µM) | 16 µg/mL (≈ 6.04 µM) | 0% | > 32 µg/mL | 2 µg/mL (≈ 0.755 µM) | 2 µg/mL (≈ 0.755 µM) | 4 µg/mL (≈ 1.51 µM) | 1 µg/mL (≈ 0.378 µM) | 2 µg/mL (≈ 0.755 µM) | 2 µg/mL (≈ 0.755 µM) | 21%
4 | CC(C)C[C@@H]1NC(=O)CNC(=O)[C@H](c2ccc(O)cc2)NC(=O)[C@@H]([C@@H](C)O)NC(=O)[C@H](c2ccc(O[C@H]3O[C@H](CO)[C@@H](O)[C@H](O)[C@@H]3O[C@H]3O[C@H](CO)[C@@H](O)[C@H](O)[C@@H]3O)cc2)NC(=O)[C@@H](CCCN)NC(=O)[C@H](Cc2ccccc2)NC(=O)[C@H]([C@@H](C)O)NC(=O)[C@@H](c2ccc(O)cc2)NC(=O)[C@H](c2ccc(O)cc2)NC(=O)[C@@H](C(C)C)NC(=O)[C@@H](CCCN)NC(=O)[C@@H](c2ccc(O)cc2)NC(=O)[C@@H](CNC(=O)[C@H](CC(N)=O)NC(=O)Cc2ccc(O)cc2)[C@@H](C(N)=O)OC(=O)[C@H](c2ccc(O)c(Cl)c2)NC(=O)[C@@H](C)NC1=O | > 32 µg/mL | > 32 µg/mL | > 32 µg/mL | > 32 µg/mL | 0% | > 32 µg/mL | > 32 µg/mL |  | > 32 µg/mL |  | 1 µg/mL (≈ 0.39 µM) | > 32 µg/mL | 0%
5 | CC(C)C[C@@H]1NC(=O)CNC(=O)[C@H](c2ccc(O)cc2)NC(=O)[C@@H]([C@@H](C)O)NC(=O)[C@H](c2ccc(O[C@H]3O[C@H](CO)[C@@H](O)[C@H](O)[C@@H]3O[C@H]3O[C@H](CO)[C@@H](O)[C@H](O)[C@@H]3O)cc2)NC(=O)[C@@H](CCCN)NC(=O)[C@H](Cc2ccccc2)NC(=O)[C@H]([C@@H](C)O)NC(=O)[C@@H](c2ccc(O)cc2)NC(=O)[C@H](c2ccc(O)cc2)NC(=O)[C@@H](C(C)C)NC(=O)[C@@H](CCCN)NC(=O)[C@@H](c2ccc(O)cc2)NC(=O)[C@@H](CNC(=O)[C@H](CC(N)=O)NC(=O)c2ccccc2)[C@@H](C(N)=O)OC(=O)[C@H](c2ccc(O)c(Cl)c2)NC(=O)[C@@H](C)NC1=O | > 32 µg/mL | 8 µg/mL (≈ 3.16 µM) | 32 µg/mL (≈ 12.6 µM) | > 32 µg/mL | 0% | > 32 µg/mL | 4 µg/mL (≈ 1.58 µM) | 4 µg/mL (≈ 1.58 µM) | 8 µg/mL (≈ 3.16 µM) | 4 µg/mL (≈ 1.58 µM) | 0.125 µg/mL (≈ 0.0493 µM) | 8 µg/mL (≈ 3.16 µM) | 4%
6 | CCCCCOc1ccc(C(=O)N[C@@H](CC(N)=O)C(=O)NC[C@@H]2C(=O)N[C@H](c3ccc(O)cc3)C(=O)N[C@H](CCCN)C(=O)N[C@H](C(C)C)C(=O)N[C@@H](c3ccc(O)cc3)C(=O)N[C@H](c3ccc(O)cc3)C(=O)N[C@@H]([C@@H](C)O)C(=O)N[C@@H](Cc3ccccc3)C(=O)N[C@H](CCCN)C(=O)N[C@@H](c3ccc(O[C@H]4O[C@H](CO)[C@@H](O)[C@H](O)[C@@H]4O[C@H]4O[C@H](CO)[C@@H](O)[C@H](O)[C@@H]4O)cc3)C(=O)N[C@H]([C@@H](C)O)C(=O)N[C@@H](c3ccc(O)cc3)C(=O)NCC(=O)N[C@@H](CC(C)C)C(=O)N[C@H](C)C(=O)N[C@@H](c3ccc(O)c(Cl)c3)C(=O)O[C@@H]2C(N)=O)cc1 | > 32 µg/mL | 8 µg/mL (≈ 3.05 µM) | 4 µg/mL (≈ 1.53 µM) | 8 µg/mL (≈ 3.05 µM) | 8% | > 32 µg/mL | 0.25 µg/mL (≈ 0.0954 µM) | 0.25 µg/mL (≈ 0.0954 µM) | 2 µg/mL (≈ 0.763 µM) | 0.25 µg/mL (≈ 0.0954 µM) | 0.25 µg/mL (≈ 0.0954 µM) | 0.25 µg/mL (≈ 0.0954 µM) | 10%
